Laboratory results reported in ChEMBL document CHEMBL1201862, “PubChem BioAssay data set” (2004).
Active and inactive are the calls of the source.

Key:
[1] = target: T1, Trace amine-associated receptor 1 (Homo sapiens, UniProt Q96RJ0); experiment: Fluorescence-based cell-based high throughput dose response assay to identify agonists of the human trace amine associated receptor 1 (TAAR1).; format: functional
[2] = target: T1, Trace amine-associated receptor 1; experiment: Counterscreen for agonists of the human trace amine associated receptor 1 (hTAAR1): Fluorescence-based cell-based high throughput dose response assay to identify hTAAR1 agonist that also desensitize TAAR1 receptor response.; format: functional
[3] = cells; format: functional, cell-based
[4] = cells; format: functional, cell-based; remark: listed apart in the source
[5] = target: T2, Nuclear receptor subfamily 0 group B member 1 (Homo sapiens, UniProt P51843); format: functional, cell-based;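 note: HEK293T cells transfected with SF-1 and DAX-1 plus StAR promoter luciferase reporter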
T2 sequence (P51843 whole entry): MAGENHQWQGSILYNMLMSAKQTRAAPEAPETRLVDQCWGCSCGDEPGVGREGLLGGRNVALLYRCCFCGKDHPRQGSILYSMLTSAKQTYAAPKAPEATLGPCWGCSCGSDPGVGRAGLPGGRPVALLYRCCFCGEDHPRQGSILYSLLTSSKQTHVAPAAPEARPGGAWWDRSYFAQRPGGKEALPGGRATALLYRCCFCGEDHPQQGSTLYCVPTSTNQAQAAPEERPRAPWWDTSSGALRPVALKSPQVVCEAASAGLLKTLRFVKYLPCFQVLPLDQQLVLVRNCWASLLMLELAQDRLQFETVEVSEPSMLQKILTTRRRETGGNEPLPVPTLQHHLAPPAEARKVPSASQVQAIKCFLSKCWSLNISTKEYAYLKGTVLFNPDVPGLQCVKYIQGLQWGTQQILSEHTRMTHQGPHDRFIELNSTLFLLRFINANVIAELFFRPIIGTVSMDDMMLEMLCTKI

[6] = system: P388/ADR; experiment: cells; format: functional; settings: Mus musculus
[7] = Luminescence-based dose response cell-based high throughput screening assay for cytotoxic compounds using the IEC-6 intestinal epithelial cell line. [Related pubchem assays: 1858 (Summary AID.), 1825 (Counterscreen.), 1907 (Confirmation screen.)]; format: functional
[8] = cells; format: functional, cell-based; remark: listed apart in the source
[9] = target: Cytochrome P450 2D6 (Homo sapiens, UniProt P10635);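 note: CYP2D6 member of a cytochrome P450 panel assay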
[10] = system: SN12K1; experiment: cells; format: functional; settings: Homo sapiens
[11] = HeLa 2N DNA content increase, dose response, cell-based, IC50 (AID 1117349); format: functional
[12] = cytotoxicity in HEK-293T cells, dose response, cytotoxicity control for TCR NF-kB inhibitor project, luminescence, T-cell screen hits (AID 489026); format: functional, cell-based;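 note: cells exposed to compound about 14 hours before the viability readout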
[13] = target: Cytochrome P450 2C9 (Homo sapiens, UniProt P11712)
[14] = system: P388; experiment: cells; format: functional; settings: Mus musculus
[15] = target: Paired box protein Pax-8 (Homo sapiens, UniProt Q06710); experiment: inhibitors of PAX8-driven TPO luciferase reporter, dose response, RMG-I cells, cherry-pick (AID 687027); format: functional, cell-based;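 note: luciferase reporter driven by Pax8 target thyroperoxidase promoter measured by SteadyGlo luminescence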
[16] = target: T3, Beta-lactamase (Pseudomonas aeruginosa, UniProt Q79MP6)
T3 sequence (Q79MP6 whole entry): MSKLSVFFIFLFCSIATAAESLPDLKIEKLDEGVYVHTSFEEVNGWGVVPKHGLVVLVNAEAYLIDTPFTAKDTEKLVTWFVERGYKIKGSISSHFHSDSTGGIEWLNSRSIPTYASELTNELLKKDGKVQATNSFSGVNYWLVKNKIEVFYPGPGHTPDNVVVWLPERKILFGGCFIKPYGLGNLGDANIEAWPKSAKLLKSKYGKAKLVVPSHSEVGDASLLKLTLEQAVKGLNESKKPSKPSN

[17] = target: T4, Beta-lactamase (Salmonella choleraesuis (strain SC-B67), UniProt Q5J463)
T4 sequence (Q5J463 whole entry): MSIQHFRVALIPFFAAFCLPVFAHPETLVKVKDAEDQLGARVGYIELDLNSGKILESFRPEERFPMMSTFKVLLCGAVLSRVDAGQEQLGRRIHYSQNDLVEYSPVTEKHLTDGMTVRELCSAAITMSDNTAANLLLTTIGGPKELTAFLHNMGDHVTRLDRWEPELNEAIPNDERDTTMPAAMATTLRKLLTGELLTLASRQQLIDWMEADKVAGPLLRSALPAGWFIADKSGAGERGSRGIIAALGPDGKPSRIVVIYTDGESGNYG

[18] = target: Tyrosine-protein phosphatase non-receptor type 11 (Homo sapiens, UniProt Q06124); experiment: SHP2 phosphatase inhibition, dose response, selectivity assay for STEP inhibitor project, biochemical (AID 602367); format: functional; settings: read-out: IC50_Mean
[19] = target: Dual specificity protein phosphatase 3 (Homo sapiens, UniProt P51452); experiment: VHR phosphatase inhibition, dose response, selectivity assay for STEP inhibitor project, biochemical (AID 602374); format: functional; settings: read-out: IC50_Mean
Dual specificity protein phosphatase 3, sequence (P51452 whole entry, the tested form may be a part): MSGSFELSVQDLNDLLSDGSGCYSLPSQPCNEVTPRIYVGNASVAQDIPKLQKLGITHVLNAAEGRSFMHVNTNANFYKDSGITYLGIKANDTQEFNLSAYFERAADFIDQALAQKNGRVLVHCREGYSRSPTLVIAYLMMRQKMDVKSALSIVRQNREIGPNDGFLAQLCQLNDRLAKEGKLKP

[20] = target: T5, Carboxy-terminal domain RNA polymerase II polypeptide A small phosphatase 1 (Homo sapiens, UniProt Q9GZU7); experiment: inhibitors of CTDSP1, concentration-response testing, biochemical assay, absorbance-based, actives from ultra-high-throughput screening (AID 540297); format: functional
T5 sequence (Q9GZU7 whole entry): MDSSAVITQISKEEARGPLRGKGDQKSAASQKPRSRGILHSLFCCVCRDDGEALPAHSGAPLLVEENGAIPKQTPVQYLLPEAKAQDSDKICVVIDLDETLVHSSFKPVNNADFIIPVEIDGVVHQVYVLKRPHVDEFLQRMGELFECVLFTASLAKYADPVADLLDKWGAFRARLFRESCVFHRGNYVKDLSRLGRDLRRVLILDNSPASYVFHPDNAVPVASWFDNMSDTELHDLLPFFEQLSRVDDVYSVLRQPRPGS

[21] = target: Tyrosine-protein phosphatase non-receptor type 5 (Homo sapiens, UniProt P54829); experiment: STEP phosphatase inhibitors, confirmation, biochemical, fluorescence intensity, uHTS hits (AID 602372); format: functional; settings: read-out: IC50_Mean
[22] = target: T6, Tyrosine-protein phosphatase non-receptor type 22 (Homo sapiens, UniProt Q9Y2R2); experiment: PTPN22 phosphatase inhibition, dose response, selectivity assay for STEP inhibitor project, biochemical (AID 624241); format: functional
T6 sequence (Q9Y2R2 whole entry): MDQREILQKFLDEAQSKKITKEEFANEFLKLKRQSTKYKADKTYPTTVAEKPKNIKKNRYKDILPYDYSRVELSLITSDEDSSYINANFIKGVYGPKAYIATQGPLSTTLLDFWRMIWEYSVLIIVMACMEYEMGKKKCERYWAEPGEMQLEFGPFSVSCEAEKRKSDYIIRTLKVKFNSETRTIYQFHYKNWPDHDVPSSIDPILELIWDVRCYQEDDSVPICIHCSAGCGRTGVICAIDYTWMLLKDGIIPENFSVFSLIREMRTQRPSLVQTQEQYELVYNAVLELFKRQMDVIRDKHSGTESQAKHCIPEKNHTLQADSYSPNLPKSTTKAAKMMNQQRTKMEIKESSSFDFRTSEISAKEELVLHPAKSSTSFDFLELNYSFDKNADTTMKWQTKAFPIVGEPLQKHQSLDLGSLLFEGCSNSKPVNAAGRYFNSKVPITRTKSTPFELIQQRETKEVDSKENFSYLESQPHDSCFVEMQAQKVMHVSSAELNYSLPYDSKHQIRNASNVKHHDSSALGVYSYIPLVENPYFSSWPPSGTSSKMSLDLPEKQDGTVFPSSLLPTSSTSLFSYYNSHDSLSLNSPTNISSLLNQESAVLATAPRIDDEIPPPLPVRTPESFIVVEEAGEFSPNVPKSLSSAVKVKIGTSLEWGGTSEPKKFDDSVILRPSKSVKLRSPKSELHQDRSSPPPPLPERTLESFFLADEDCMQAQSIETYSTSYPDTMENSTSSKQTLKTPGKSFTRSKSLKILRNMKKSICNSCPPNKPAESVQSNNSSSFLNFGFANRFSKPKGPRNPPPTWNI

[23] = target: T4, Beta-lactamase; experiment: Epi-absorbance-based counterscreen for selective VIM-2 inhibitors: dose response biochemical high throughput screening assay to identify inhibitors of TEM-1 serine-beta-lactamase.
[24] = target: T3, Beta-lactamase; experiment: […] counterscreen for selective VIM-2 inhibitors: dose response biochemical high throughput screening assay to identify inhibitors of IMP-1 metallo-beta-lactamase.
[25] = target: T3, Beta-lactamase; experiment: IMP-1 metallo-beta-lactamase inhibitors, dose response, selectivity assay for VIM-2 inhibitor project, biochemical, epi-absorbance (AID 1920)
[26] = target: T7, Matrix metalloproteinase-14 (Homo sapiens, UniProt P50281); experiment: Dose Response confirmation of uHTS hits for a small molecule inhibitors of MT1-MMP activation in a fluorescence assay set 1.; format: functional
[27] = target: T7, Matrix metalloproteinase-14; experiment: SAR confirmation of uHTS hits for a small molecule inhibitors of MT1-MMP activation in a fluorescence assay.; format: functional
[28] = target: Beta-2 adrenergic receptor (Homo sapiens, UniProt P07550); experiment: Dose response for HTS for Beta-2AR agonists via FAP method from Powderset3.; format: functional
[29] = target: T8, Voltage-gated N-type calcium channel alpha-1B subunit/Amyloid beta A4 precursor protein-binding family A member 1 (Homo sapiens, UniProt Q00975+Q02410); format: protein assay
T8 sequence (Q00975 whole entry): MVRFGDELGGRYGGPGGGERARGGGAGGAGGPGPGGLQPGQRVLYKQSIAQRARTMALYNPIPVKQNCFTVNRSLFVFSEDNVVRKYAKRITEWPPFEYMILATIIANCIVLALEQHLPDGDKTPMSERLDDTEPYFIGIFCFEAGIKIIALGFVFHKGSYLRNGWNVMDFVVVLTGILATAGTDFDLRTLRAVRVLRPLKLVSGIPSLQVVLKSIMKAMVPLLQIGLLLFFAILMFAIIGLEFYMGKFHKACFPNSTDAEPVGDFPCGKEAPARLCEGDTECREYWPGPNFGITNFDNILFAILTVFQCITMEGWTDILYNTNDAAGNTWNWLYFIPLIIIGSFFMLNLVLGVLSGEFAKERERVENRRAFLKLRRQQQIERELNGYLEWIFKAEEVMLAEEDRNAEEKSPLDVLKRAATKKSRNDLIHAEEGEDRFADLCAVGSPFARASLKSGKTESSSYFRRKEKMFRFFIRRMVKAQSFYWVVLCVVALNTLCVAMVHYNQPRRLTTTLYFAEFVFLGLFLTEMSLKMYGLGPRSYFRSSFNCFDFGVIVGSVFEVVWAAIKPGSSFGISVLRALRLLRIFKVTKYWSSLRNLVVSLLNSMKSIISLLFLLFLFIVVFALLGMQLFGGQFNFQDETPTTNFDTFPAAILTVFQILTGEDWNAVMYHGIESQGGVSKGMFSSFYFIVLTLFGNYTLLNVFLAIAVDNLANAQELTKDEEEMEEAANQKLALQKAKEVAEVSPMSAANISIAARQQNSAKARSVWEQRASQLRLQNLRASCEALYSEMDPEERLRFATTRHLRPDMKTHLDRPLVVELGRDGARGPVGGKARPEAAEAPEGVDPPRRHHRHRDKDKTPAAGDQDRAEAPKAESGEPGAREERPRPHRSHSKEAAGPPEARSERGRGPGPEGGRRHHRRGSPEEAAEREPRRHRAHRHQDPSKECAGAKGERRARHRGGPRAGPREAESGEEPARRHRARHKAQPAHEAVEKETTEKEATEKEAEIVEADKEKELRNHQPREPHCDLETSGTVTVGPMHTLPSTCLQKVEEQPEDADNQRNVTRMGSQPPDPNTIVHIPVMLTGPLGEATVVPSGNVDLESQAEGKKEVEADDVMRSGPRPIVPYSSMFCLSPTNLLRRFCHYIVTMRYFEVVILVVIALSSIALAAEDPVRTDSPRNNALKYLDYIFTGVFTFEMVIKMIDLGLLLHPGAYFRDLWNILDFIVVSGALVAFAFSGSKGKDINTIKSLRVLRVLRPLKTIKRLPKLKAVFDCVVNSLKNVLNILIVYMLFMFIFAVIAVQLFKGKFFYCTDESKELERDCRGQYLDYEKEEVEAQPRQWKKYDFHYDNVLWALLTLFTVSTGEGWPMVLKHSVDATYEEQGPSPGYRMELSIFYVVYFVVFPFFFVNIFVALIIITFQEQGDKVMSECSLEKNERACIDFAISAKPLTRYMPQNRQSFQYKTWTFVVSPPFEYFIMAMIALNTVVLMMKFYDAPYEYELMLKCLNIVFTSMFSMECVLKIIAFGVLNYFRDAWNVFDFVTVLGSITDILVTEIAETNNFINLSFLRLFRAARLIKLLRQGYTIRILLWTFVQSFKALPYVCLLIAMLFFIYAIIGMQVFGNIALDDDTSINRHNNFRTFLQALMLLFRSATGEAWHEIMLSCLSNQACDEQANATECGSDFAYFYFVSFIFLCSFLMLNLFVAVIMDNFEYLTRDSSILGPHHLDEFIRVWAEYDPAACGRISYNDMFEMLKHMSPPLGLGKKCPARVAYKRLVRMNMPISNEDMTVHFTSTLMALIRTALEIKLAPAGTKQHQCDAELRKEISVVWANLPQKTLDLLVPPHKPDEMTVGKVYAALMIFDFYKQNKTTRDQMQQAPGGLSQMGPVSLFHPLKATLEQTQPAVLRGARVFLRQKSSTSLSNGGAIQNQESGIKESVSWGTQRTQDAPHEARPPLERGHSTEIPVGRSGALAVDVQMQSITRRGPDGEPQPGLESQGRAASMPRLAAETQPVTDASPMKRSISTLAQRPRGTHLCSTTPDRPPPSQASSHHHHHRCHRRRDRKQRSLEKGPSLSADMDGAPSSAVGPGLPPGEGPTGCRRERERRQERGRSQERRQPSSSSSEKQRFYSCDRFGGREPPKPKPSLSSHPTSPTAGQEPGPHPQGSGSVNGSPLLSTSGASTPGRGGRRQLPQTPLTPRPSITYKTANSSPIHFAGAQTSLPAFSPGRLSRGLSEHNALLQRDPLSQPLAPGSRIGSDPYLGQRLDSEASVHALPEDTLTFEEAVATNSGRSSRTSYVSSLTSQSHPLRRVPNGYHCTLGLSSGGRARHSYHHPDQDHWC
T8 sequence (Q02410 whole entry): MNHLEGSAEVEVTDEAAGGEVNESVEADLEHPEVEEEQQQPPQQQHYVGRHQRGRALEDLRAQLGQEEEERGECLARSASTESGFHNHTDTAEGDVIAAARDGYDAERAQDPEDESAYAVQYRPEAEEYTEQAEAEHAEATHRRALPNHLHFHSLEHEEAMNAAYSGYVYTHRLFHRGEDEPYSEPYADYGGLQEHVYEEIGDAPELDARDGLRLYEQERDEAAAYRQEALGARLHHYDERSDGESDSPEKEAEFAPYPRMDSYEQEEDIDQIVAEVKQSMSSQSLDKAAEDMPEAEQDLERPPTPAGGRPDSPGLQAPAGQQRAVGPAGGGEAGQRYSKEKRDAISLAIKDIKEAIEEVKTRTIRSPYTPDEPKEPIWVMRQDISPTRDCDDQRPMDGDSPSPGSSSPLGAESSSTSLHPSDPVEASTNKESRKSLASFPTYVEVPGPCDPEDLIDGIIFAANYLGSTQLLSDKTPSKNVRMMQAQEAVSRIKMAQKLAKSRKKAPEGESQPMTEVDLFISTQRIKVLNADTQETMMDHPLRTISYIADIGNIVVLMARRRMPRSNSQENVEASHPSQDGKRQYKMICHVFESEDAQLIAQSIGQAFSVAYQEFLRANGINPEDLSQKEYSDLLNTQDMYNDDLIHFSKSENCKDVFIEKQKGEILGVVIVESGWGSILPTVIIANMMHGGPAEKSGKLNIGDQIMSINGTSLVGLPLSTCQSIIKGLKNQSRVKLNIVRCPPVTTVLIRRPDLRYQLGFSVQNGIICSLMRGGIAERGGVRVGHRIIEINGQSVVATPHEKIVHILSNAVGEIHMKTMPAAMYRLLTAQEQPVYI

[30] = target: T8, Voltage-gated N-type calcium channel alpha-1B subunit/Amyloid beta A4 precursor protein-binding family A member 1; format: protein assay; remark: listed apart in the source
[31] = target: Ephrin type-A receptor 4 (Mus musculus, UniProt Q03137); experiment: inhibitors of EphA4 binding to KYL peptide, primary screen, biochemical, colorimetric, mouse EphA4 (AID 689); format: functional
[32] = target: Induced myeloid leukemia cell differentiation protein Mcl-1 (Homo sapiens, UniProt Q07820); format: functional
[33] = target: Beta-galactosidase (Escherichia coli, UniProt Q8VNN2); experiment: Dose response counterscreen for EBI2 assay utilizing the enzyme, b-galactosidase.; format: functional
[34] = target: Albumin (Bos taurus, UniProt P02769); experiment: Counterscreen for inhibitors of T-cell receptor (TCR)-CD3 interaction: Fluorescence-based biochemical high throughput dose response assay to identify inhibitors of T-cell receptor (TCR)-CD3 interaction using a TAMRA-labeled BSA probe.; format: functional
[35] = target: RNA-editing ligase 1, mitochondrial (Trypanosoma brucei brucei, UniProt P86926); experiment: TbREL1 ligase inhibitors, dose response, biochemical, fluorescence, Trypanosoma brucei (AID 1117295); format: functional
RNA-editing ligase 1, mitochondrial, sequence (P86926 whole entry): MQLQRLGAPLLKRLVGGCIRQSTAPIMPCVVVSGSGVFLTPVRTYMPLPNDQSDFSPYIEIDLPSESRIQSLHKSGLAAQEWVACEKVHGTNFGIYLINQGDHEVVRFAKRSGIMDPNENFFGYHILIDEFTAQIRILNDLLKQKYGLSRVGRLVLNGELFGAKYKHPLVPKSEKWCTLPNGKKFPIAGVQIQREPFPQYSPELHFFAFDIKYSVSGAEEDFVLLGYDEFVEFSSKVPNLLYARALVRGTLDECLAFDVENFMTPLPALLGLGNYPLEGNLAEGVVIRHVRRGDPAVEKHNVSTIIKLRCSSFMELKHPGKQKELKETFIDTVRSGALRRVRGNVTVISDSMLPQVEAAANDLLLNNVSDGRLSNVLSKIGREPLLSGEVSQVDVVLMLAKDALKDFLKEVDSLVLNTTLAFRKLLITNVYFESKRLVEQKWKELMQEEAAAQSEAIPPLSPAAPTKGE

[36] = target: 72 kDa type IV collagenase (Homo sapiens, UniProt P08253); experiment: Dose Response validation of uHTS RPN11 inhibitor hits using a MMP-2 Fluorescence assay.; format: functional
[37] = target: Prothrombin (Bos taurus, UniProt P00735); experiment: thrombin inhibition, dose response, biochemical, fluorescence polarization, uHTS hits (AID 602369); format: functional
[38] = target: T9, Small ubiquitin-related modifier 1 (Homo sapiens, UniProt P63165); experiment: inhibitors of SUMO1 partner interactions, dose response, biochemical, FRET (AID 624383); format: functional; settings: read-out: IC50_Mean
T9 sequence (P63165 whole entry): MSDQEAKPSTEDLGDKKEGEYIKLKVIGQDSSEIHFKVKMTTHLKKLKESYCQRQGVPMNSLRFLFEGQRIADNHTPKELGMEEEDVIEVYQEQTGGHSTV

[39] = target: T9, Small ubiquitin-related modifier 1; experiment: inhibitors of SUMO1 peptide binding, dose response, biochemical, fluorescence polarization, uHTS hits (AID 624382); format: functional; settings: read-out: IC50_Mean
[40] = target: 26S proteasome non-ATPase regulatory subunit 14 (Homo sapiens, UniProt O00487); experiment: inhibition of proteasome subunit RPN11 – biochemical, fluorescence polarization, uHTS hits, confirmation (AID 602368); format: functional
[41] = target: E3 ubiquitin-protein ligase XIAP (Homo sapiens, UniProt P98170); experiment: Counter Screen using XIAP-Bir3 for Chemical Antagonists of Bir1/2 domains of IAP-family anti-apoptotic proteins. [Related pubchem assays (depositor defined):AID1018, AID1449, AID1514, AID1638, AID1749, AID1750, AID488957, AID488963]

T1 sequence (Q96RJ0 whole entry): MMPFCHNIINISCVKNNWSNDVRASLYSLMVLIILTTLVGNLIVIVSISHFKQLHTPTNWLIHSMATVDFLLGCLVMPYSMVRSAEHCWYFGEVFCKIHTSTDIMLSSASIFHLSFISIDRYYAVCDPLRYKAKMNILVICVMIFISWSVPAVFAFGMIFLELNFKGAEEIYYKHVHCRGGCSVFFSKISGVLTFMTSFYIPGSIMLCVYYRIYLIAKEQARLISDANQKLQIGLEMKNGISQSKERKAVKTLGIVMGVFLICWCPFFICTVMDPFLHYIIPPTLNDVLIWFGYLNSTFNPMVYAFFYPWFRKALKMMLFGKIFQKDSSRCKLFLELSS

O=C(N[C@@H](Cc1cccnc1)C(=O)N1CCC[C@H]1C(=O)NCCc1ccccc1Cl)c1ccc(Cl)cc1Cl
inactive: IC50 [3] > 29.9 µM | EC50 [4] > 29.9 µM
active: EC50 [1] 4.03 µM | IC50 [2] 2.94 µM

COc1cc2c(c(OC)c1OC)-c1ccc(OC)c(=O)cc1[C@@H](NC(C)=O)CC2 [COLCHICINE]
active: IC50 [7] 0.0628 µM | AC50 [9] 0.794 µM | GI50 [10] < 0.0625 µM | IC50 [11] 0.0017 µM | AC50 [13] 3.16 µM | GI50 [14] 0.0625 µM | AC50 [15] < 0.26 µM
inactive: IC50 [5] > 67.6 µM | GI50 [6] 1.36 µM | IC50 [8] > 67.6 µM | IC50 [12] > 80 µM

Cn1cc(/C=C(\C(=O)O)C(C(=O)O)=C2CCCCC2)c2ccccc21
inactive: IC50 [16] > 59.6 µM | IC50 [17] > 59.6 µM

O=C(O)CC/C(=N\Nc1ccc(S(=O)(=O)N2CCCC2)cc1[N+](=O)[O-])c1cccs1
active: IC50 [18] 14.5 µM | IC50 [19] 15.6 µM | IC50 [20] 15.5 µM | IC50 [21] 19 µM
inactive: IC50 [22] 34.5 µM

Sc1nnc(-c2ccc3ccccc3n2)n1-c1ccc2c(c1)OCCO2
inactive: IC50 [23] > 59.6 µM | IC50 [24] > 59.6 µM | IC50 [25] > 59.6 µM

CCn1c(=O)c(=O)[nH]c2cc(C(=O)NC3CCCc4ccccc43)ccc21 (configuration not stated)
inactive: IC50 [26] 26.7 µM | IC50 [27] 29.1 µM

CSc1nc(SCCO)c2sc3nc(-c4ccco4)c4c(c3c2n1)CC(C)(C)OC4
> 56.8 µM (not active): IC50 [30]
active: EC50 [28] 1.81 µM | IC50 [29] 14.3 µM | IC50 [20] 3.01 µM | IC50 [31] 6.73 µM | IC50 [32] 1.54 µM

CCN1CCN(C(=O)/C=C/c2ccc(C)cc2)CC1
inactive: IC50 [33] > 80 µM

NS(=O)(=O)c1ccc(NC(=O)c2cccc(N3C(=O)c4ccccc4C3=O)c2)cc1
active: IC50 [38] 14.4 µM | IC50 [40] 40.2 µM
inactive: IC50 [34] > 94.1 µM | IC50 [35] 30.8 µM | IC50 [36] > 100 µM | IC50 [37] > 100 µM | IC50 [39] > 66.6 µM | IC50 [41] > 20 µM
